Assay results published in US20220143003A1, “COMPOSITIONS AND METHODS TO TREAT NON-ALCOHOLIC FATTY LIVER DISEASES (NAFLD)” (Coherus Biosciences, Inc., priority 2018, published 2022).

Key:
Type in all cases: in vivo, male C57BL/6JRj mice
DIO-NASH mice [1] = test: Oral glucose tolerance test (OGTT), week 7; conditions: 6 h fasted, oral glucose 2 g/kg, group mean
Experimental: Animals were fasted 6 hours prior to oral glucose administration (2 g/kg). At the various time points after glucose administration, blood samples were collected into heparinized glass capillary tubes and immediately suspended in glucose/lactate system solution buffer (EKF-diagnostics, Germany). Blood glucose (BG) was measured using a BIOSEN c-Line glucose meter (EKF-diagnostics, Germany) according to the manufacturer's instructions. After the last blood sample, the animals were returned to the normal feeding schedule. The order of the animals were randomized before the procedure and mice were dosed with compounds just after the −60 minutes blood sample.
Oral glucose tolerance test (OGTT) in week 7. Temporal course of blood glucose levels during 6 h fasted OGTT. Oral glucose bolus (2 g/kg) at t=0 min.
Area under the curve calculated from the temporal course from 0-180 min OGTT. Values expressed as mean of n=12-14+SEM.

DIO-NASH mice [2] = test: Intraperitoneal insulin tolerance test (IPITT), week 10; design: Area under the curve 0-180 min IPITT (blood glucose): unit not given here; conditions: for Area under the curve 0-180 min IPITT (blood glucose): week 10, 6 h fasted, i.p. insulin 0.5 U/kg, group mean
Experimental: Mice were fasted 6 hours prior to intraperitoneal insulin administration (0.5 Unit/kg, rapid acting insulin NovoRapid). At the various time points after insulin administration, blood samples were collected into heparinized glass capillary tubes and immediately suspended in glucose/lactate system solution buffer (EKF-diagnostics, Germany). Blood glucose (BG) was measured using a BIOSEN c-Line glucose meter (EKF-diagnostics, Germany) according to the manufacturer's instructions. After the last blood sample, the animals were returned to the normal feeding schedule. The order of the animals was randomized before the procedure and mice were dosed with compounds just after the −60 minutes blood sample.
Intraperitoneal insulin tolerance test (IPITT) in week 10. Left: Temporal course of blood glucose levels during 6 h fasted IPITT. Intraperitoneal insulin bolus (0.5 U/kg) at t=0 min.
Area under the curve calculated from the temporal course from 0-180 min PITT Values expressed as mean of n=12-14+SEM.

DIO-NASH mice [3] = test: Plasma total cholesterol (TC) at termination; conditions: for Plasma total cholesterol (TC) at termination: group mean
Experimental: (§1) For plasma biochemistry, tail blood was drawn directly through the capillary of a Microvette/Vacuette of the right dimension and anticoagulant and mixed by inversion 5 times. Blood was placed at 4° C. until centrifugation at 3000×g for 10 minutes at 4° C. The plasma supernatants were transferred to new tubes and immediately frozen on dry ice and stored at −80° C. until analysis.
(§2) Mouse insulin was measured in single determinations using the MSD platform (Meso Scale Diagnostics).
Plasma total cholesterol (TC) at termination (mmol/L). Values expressed as mean of n=12-14+SEM.

DIO-NASH mice [4] = test: Plasma triglycerides (TG) at termination; conditions: group mean
Experimental: as §1, §2
Plasma triglycerides (TG) at termination (mmol/L). Values expressed as mean of n=12-14+SEM.

DIO-NASH mice [5] = test: Plasma alanine transaminase (ALT) at termination; conditions: for Plasma alanine transaminase (ALT) at termination: group mean
Experimental: as §1, §2
Plasma alanine transaminase (ALT) at termination (U/L). Values expressed as mean of n=11-14+SEM.

DIO-NASH mice [6] = test: Liver Collagen 1A1 (Col1a1) IHC quantified by morphometry; conditions: for Relative terminal liver Col1a1 by morphometry / Total terminal Col1a1 (% fractional area multiplied with liver weight): group mean
Experimental: After surgery, the animals were evaluated daily on general health and body weight. […] The pre-biopsy was analyzed to evaluate liver steatosis score and fibrosis stage for study inclusion as outlined by Kleiner et al. (2005) (Table 1). In addition, liver Collagen 1a1 (Col1a1) quantified by morphometry was used to perform a stratified randomization of NASH-affected animals into study groups (see description of histopathological stains and analyses below).
(§3) Protein markers of fibrosis (Col1a1), fibrogenesis (α-SMA) and inflammation (Gal-3) were assessed by immunohistochemistry. α-SMA and collagen type I increase in regulation of quiescent hepatic stellate cell activation into myofibroblast-like cells where activated hepatic stellate cells are the main collagen producing cells in the liver (Carpino et al 2005, Hou and Syn 2018) whereas Gal-3 is involved in mediating inflammatory response and considered as a macrophage activation marker (Sciacchitano et al, 2018). For morphometric quantification of liver Col1a1 (using antibody from Southern Biotech, Cat. #1310-01), alpha-smooth muscle actin (α-SMA; using antibody from Abcam, Cat. #Ab124964) and Galectin-3 (using antibody from Biolegend, Cat. #125402), IHC staining was performed using standard procedures. Briefly, after antigen retrieval and blocking of endogenous peroxidase activity, slides were incubated with primary antibody. For all IHC stains, the primary antibody was detected using a polymeric HRP-linker antibody conjugate and visualized using DAB as chromogen. Finally, sections were counterstained in hematoxylin and cover-slipped before scanning.
(§4) Quantitative assessment of immunoreactivity is evaluated as follows. IHC-positive staining is quantified by image analysis using the Visiomorph software (Visiopharm, Denmark). Visiomorph protocols are designed to analyze the virtual slides in two steps: 1. Crude detection of tissue at low magnification (1× objective). The liver capsule is excluded. 2. Detection of IHC-positive staining (e.g. green; collagen 1 IHC), tissue (e.g. red) and fat (e.g. pink) at high magnification (10×objective). The quantitative estimate of IHC-positive staining is calculated as an area fraction (AF) according to the following formula:
Liver fibrosis (Col1a1%) at baseline. Values expressed as mean of n=12-14+SEM.
Terminal liver Collagen 1A1 (Col1a1) was quantified by morphometry. Relative Terminal liver Col1a1 (% fractional area) is expressed as mean of n=12-14+SEM.
Total terminal Col1a1 values are in milligrams (% fractional area multiplied with liver weight) and expressed as mean of n=12-14+SEM.

DIO-NASH mice [7] = test: Liver Galectin-3 IHC quantified by morphometry; conditions: at termination, mean of n=12-14; for Total terminal liver Galectin-3 (Average): % fractional area multiplied with liver weight; for Relative terminal liver Galectin-3 (Average): morphometry
Experimental: as §3, §4
Terminal liver Galectin-3 was quantified by morphometry. Relative terminal liver Galectin-3 (% fractional area) is expressed as mean of n=12-14+SEM.
Total terminal Galectin-3 values are in milligrams (% fractional area multiplied with liver weight) and expressed as mean of n=12-14+SEM.

[8] = CHS-131 High dose (alone or combined)
[9] = DIO-NASH mice, 12 weeks of treatment, summary of data
[10] = DIO-NASH mice, compared to DIO mice administered vehicle only, significant, not in a dose response manner

| SMILES | Area under the curve 0-180 min OGTT (blood glucose) (DIO-NASH mice [1]; [8]) | Area under the curve 0-180 min IPITT (blood glucose) (DIO-NASH mice [2]; [8]) | Plasma total cholesterol (TC) at termination (DIO-NASH mice [3]; [8]) [mmol/L] | Plasma triglycerides (TG) at termination (DIO-NASH mice [4]; [8]) [mmol/L] | Plasma alanine transaminase (ALT) at termination (DIO-NASH mice [5]; [8]) [U/L] | Relative terminal liver Col1a1 by morphometry (DIO-NASH mice [6]; [8]) [% fractional area] | Total terminal Col1a1 (% fractional area multiplied with liver weight) (DIO-NASH mice [6]; [8]) [milligrams] | Total terminal liver Galectin-3 (Average) (DIO-NASH mice [7]) [milligrams] | Relative terminal liver Galectin-3 (Average) (DIO-NASH mice [7]) [% fractional area] | also measured |
| --- | --- | --- | --- | --- | --- | --- | --- | --- | --- | --- |
| OC[C@H]1O[C@@H](c2ccc(Cl)c(Cc3ccc(O[C@H]4CCOC4)cc3)c2)[C@H](O)[C@@H](O)[C@@H]1O [Empagliflozin, reference compound] | 1.31e+03 | 723 | 7.62 | 0.738 | 216 | 7.31 | 250 | 99.9 | 2.9 |  |
| O=S(=O)(Nc1cc(Cl)c(Oc2cnc3ccccc3c2)c(Cl)c1)c1ccc(Cl)cc1Cl [CHS-131] | 1.66e+03 | 767 | 6.38 | 0.651 | 140 | 6.77 | 220 |  |  | Area under the curve 0-180 min OGTT (blood glucose) (DIO-NASH mice [1]; CHS-131 Low dose): 1.53e+03; Insulin sensitization, effect in words (DIO-NASH mice [2]; [9]): significant improvement; Decrease of insulin resistance (DIO-NASH mice [2]; [10]): 15%; Area under the curve 0-180 min IPITT (blood glucose) (DIO-NASH mice [2]; CHS-131 Low dose): 758; Plasma TC, effect in words (DIO-NASH mice [3]; [9]): reduced; Decrease of plasma cholesterol (DIO-NASH mice [3]; [10]): ~12%; Plasma total cholesterol (TC) at termination (DIO-NASH mice [3]; CHS-131 Low dose): 6.45 mmol/L; Plasma triglycerides (TG) at termination (DIO-NASH mice [4]; CHS-131 Low dose): 0.715 mmol/L; Plasma ALT, effect in words (DIO-NASH mice [5]; [9]): reduced; Decrease of plasma alanine aminotransferase (ALT) (DIO-NASH mice [5]; DIO-NASH mice, compared to DIO mice administered vehicle only (placebo)): 30%; Plasma alanine transaminase (ALT) at termination (DIO-NASH mice [5]; CHS-131 Low dose): 163 U/L; Decrease of terminal Collagen 1a1 (marker of fibrosis) (DIO-NASH mice [6]; DIO-NASH mice, compared to vehicle alone, trend): 15%; Relative terminal liver Col1a1 by morphometry (DIO-NASH mice [6]; CHS-131 Low dose): 6.64 % fractional area; Total terminal Col1a1 (% fractional area multiplied with liver weight) (DIO-NASH mice [6]; CHS-131 Low dose): 213 milligrams; Total terminal liver Galectin-3 (Average) (DIO-NASH mice [7]; CHS-131 High dose + Vehicle): 90.6 milligrams; Relative terminal liver Galectin-3 (Average) (DIO-NASH mice [7]; CHS-131 High dose + Vehicle): 2.79 % fractional area; Total terminal liver Galectin-3 (Average) (DIO-NASH mice [7]; CHS-131 Low dose + Vehicle): 93.8 milligrams; Relative terminal liver Galectin-3 (Average) (DIO-NASH mice [7]; CHS-131 Low dose + Vehicle): 2.95 % fractional area |
| CSc1ccc(C(=O)/C=C/c2cc(C)c(OC(C)(C)C(=O)O)c(C)c2)cc1 [Elafibranor, reference compound] | 1.35e+03 | 757 | 5.75 | 0.525 | 144 | 6.27 | 270 | 104 | 2.43 |  |
